By Kd is commonly meant the equilibrium constant for the complex coming apart.

Calls of active or inactive are those of the source. Some results are limits rather than exact numbers.

Test [1] deals with T1, Protein kinase C zeta type (Homo sapiens, UniProt Q05513).
T1 sequence (Q05513 whole entry): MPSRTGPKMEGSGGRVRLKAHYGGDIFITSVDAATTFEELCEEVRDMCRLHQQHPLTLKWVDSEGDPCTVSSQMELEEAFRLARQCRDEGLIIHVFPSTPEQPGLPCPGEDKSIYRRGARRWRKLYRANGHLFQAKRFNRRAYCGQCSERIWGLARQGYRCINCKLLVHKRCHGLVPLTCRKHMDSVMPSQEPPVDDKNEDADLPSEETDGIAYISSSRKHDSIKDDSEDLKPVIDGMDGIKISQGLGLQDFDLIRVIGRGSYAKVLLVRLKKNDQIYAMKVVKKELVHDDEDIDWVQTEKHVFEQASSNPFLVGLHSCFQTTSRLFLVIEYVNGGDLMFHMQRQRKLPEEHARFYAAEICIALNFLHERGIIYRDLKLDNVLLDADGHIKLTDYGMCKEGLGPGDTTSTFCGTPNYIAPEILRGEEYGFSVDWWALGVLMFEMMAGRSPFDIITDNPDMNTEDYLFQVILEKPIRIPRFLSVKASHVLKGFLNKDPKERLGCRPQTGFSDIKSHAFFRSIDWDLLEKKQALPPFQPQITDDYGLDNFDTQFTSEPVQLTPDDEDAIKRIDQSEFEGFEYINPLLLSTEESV

In test [2] the target is Dual specificity protein kinase CLK1 (Homo sapiens, UniProt P49759).
Test [3] addresses Proto-oncogene tyrosine-protein kinase receptor Ret (Homo sapiens, UniProt P07949).
In test [4] the target is Proto-oncogene tyrosine-protein kinase Src (Homo sapiens, UniProt P12931).
A further test has as its target Midasin (Homo sapiens, UniProt Q9NU22).
For test [5], the target named is cAMP-dependent protein kinase catalytic subunit beta (Homo sapiens, UniProt P22694).
For test [6], the target named is Serine/threonine-protein kinase MRCK gamma (Homo sapiens, UniProt Q6DT37).
Test [7] addresses T2, Adenine phosphoribosyltransferase (Homo sapiens, UniProt P07741).
T2 sequence (P07741 whole entry): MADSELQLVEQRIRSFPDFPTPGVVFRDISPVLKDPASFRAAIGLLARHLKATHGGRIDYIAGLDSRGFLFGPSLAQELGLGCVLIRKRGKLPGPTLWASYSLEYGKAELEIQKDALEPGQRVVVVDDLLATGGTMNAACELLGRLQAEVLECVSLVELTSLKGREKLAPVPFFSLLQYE

The target in the next test is T3, Aurora kinase A (Homo sapiens, UniProt O14965).
T3 sequence (O14965 whole entry): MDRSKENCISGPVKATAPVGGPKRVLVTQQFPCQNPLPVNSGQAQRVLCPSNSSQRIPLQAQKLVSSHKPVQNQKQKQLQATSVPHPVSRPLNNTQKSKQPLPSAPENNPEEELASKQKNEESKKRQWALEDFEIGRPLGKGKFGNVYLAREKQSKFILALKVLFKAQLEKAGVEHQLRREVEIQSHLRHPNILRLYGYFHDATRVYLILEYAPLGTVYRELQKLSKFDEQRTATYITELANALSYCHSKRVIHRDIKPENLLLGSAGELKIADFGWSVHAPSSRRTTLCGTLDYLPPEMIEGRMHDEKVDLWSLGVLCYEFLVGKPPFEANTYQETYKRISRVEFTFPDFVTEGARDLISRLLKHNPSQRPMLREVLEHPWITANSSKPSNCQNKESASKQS

Test [8] deals with Cyclin-dependent kinase 17 (Homo sapiens, UniProt Q00537).
Test [9] has as its target Uncharacterized aarF domain-containing protein kinase 5 (Homo sapiens, UniProt Q3MIX3).
For test [10], the target named is Dual specificity testis-specific protein kinase 2 (Homo sapiens, UniProt Q96S53).
The target of test [11] is T4, Cyclin-dependent kinase-like 5 (Homo sapiens, UniProt O76039).
T4 sequence (O76039 whole entry): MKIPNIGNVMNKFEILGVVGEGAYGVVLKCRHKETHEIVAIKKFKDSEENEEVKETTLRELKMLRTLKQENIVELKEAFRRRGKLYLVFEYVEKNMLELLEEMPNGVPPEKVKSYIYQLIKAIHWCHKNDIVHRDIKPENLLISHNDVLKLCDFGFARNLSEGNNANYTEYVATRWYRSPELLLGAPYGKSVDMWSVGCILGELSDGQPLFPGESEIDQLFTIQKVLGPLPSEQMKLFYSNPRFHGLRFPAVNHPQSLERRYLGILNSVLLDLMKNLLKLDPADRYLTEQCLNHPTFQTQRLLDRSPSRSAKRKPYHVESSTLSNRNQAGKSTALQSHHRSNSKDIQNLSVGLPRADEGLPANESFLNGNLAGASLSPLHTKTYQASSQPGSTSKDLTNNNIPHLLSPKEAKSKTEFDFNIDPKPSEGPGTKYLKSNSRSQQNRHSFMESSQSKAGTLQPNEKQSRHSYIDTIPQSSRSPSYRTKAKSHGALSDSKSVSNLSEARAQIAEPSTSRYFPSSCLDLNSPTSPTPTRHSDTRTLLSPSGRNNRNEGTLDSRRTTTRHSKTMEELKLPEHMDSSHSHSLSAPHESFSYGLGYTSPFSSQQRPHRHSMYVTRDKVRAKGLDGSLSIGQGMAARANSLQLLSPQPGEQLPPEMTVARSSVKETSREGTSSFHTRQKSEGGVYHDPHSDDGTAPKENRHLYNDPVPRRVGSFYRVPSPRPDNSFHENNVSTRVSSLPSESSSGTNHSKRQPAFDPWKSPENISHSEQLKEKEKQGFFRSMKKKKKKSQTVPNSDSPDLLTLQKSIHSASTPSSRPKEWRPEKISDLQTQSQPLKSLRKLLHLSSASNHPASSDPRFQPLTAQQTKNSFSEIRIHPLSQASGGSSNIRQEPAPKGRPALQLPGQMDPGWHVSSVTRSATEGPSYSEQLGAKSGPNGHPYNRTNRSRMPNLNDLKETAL

In test [12] the target is Serine/threonine-protein kinase PAK 6 (Homo sapiens, UniProt Q9NQU5).
The target in test [13] is PAS domain-containing serine/threonine-protein kinase (Homo sapiens, UniProt Q96RG2).
Test [14] addresses Dual specificity protein kinase CLK2 (Homo sapiens, UniProt P49760).
Note: in the data inactive means no Kd found up to 30 µM.

Chain of Dual specificity testis-specific protein kinase 2 (Q96S53 whole entry): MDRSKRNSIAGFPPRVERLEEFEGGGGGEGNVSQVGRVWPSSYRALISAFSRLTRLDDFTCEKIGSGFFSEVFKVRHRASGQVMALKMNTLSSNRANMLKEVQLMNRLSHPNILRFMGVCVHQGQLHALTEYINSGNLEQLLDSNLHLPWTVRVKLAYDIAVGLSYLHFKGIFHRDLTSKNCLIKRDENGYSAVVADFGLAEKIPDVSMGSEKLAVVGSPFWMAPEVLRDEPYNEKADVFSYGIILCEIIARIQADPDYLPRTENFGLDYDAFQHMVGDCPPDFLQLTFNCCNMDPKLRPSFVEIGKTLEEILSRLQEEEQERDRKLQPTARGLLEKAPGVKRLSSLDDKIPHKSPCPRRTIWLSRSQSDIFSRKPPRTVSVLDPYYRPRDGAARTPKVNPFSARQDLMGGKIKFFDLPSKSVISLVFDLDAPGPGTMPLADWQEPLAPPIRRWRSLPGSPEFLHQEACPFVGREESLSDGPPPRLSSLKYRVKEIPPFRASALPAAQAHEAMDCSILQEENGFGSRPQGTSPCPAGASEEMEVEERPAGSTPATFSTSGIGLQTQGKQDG
Chain of Dual specificity protein kinase CLK1 (P49759 whole entry): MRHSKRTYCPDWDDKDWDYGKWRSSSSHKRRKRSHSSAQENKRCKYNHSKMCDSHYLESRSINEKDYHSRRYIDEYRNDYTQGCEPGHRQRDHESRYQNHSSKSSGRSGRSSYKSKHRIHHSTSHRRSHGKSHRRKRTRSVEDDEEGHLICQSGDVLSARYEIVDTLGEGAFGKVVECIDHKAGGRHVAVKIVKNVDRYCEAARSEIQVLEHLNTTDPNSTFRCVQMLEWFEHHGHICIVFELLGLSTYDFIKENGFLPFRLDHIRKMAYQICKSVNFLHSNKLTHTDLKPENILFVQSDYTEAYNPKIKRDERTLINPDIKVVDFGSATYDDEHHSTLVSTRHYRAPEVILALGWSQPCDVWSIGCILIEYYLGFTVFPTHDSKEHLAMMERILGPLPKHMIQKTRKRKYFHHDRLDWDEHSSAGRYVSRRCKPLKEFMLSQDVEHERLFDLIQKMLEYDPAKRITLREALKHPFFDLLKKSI
Chain of Dual specificity protein kinase CLK2 (P49760 whole entry): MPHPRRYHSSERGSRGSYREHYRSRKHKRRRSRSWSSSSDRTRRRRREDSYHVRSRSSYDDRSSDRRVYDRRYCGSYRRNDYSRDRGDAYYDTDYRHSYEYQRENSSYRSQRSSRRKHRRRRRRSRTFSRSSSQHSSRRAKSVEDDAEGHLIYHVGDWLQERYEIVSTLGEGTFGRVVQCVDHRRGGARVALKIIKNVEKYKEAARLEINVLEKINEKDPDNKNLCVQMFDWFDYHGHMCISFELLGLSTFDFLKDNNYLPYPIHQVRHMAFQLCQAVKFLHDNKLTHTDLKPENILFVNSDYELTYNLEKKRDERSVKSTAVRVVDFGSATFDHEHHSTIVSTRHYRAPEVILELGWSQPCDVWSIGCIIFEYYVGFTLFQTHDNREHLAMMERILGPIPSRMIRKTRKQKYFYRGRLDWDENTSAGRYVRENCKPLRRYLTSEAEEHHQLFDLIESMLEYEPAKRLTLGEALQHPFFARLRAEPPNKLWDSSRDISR
Chain of Cyclin-dependent kinase 17 (Q00537 whole entry, the tested form may be a part): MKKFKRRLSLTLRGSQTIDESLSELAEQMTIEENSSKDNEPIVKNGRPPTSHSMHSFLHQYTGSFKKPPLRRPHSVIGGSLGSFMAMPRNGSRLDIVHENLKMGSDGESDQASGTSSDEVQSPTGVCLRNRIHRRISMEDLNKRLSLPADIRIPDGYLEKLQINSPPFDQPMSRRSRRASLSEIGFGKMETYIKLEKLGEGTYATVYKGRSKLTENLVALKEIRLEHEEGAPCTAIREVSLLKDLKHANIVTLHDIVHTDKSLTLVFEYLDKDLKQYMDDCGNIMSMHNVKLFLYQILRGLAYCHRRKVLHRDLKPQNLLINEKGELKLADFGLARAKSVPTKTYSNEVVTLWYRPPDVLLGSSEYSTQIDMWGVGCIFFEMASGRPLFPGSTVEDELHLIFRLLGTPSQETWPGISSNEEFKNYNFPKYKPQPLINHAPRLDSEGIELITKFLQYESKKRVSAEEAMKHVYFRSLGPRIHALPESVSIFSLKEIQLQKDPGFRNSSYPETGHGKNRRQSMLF
Chain of Serine/threonine-protein kinase MRCK gamma (Q6DT37 whole entry): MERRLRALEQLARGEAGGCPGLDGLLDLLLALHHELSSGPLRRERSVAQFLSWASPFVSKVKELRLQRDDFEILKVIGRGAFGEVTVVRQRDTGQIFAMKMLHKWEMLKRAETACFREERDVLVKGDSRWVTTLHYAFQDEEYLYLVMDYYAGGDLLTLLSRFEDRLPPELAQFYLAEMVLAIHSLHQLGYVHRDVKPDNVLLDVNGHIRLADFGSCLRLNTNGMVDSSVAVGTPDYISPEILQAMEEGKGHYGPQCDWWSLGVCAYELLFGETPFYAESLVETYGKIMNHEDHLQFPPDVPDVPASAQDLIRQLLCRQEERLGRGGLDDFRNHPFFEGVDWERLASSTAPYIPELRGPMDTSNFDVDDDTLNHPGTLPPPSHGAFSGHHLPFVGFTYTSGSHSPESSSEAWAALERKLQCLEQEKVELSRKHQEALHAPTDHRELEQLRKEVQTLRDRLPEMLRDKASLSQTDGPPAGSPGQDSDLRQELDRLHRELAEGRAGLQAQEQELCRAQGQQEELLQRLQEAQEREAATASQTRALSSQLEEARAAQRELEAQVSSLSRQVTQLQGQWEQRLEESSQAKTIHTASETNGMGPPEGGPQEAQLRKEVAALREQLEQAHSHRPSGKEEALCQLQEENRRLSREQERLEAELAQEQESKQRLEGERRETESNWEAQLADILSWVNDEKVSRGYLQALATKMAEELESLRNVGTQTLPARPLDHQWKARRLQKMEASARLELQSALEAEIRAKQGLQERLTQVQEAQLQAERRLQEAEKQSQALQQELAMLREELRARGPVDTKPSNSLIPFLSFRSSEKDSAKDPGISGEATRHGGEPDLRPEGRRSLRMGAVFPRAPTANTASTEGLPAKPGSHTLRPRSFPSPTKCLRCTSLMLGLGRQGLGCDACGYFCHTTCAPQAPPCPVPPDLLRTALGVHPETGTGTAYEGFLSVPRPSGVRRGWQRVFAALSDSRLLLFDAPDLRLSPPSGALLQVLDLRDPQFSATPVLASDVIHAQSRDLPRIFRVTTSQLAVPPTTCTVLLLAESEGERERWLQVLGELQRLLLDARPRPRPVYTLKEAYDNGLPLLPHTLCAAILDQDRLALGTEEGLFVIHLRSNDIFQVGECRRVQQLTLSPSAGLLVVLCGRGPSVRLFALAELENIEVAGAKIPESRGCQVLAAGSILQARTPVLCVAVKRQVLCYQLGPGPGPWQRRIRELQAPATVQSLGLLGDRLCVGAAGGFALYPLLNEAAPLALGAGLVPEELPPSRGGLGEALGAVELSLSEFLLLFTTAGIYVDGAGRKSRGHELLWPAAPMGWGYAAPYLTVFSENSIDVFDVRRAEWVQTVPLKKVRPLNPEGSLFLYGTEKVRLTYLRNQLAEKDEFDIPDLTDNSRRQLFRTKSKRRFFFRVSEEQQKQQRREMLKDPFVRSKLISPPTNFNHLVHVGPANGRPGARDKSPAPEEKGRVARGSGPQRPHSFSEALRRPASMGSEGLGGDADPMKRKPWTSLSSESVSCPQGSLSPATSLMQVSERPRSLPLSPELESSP
Chain of PAS domain-containing serine/threonine-protein kinase (Q96RG2 whole entry, the tested form may be a part): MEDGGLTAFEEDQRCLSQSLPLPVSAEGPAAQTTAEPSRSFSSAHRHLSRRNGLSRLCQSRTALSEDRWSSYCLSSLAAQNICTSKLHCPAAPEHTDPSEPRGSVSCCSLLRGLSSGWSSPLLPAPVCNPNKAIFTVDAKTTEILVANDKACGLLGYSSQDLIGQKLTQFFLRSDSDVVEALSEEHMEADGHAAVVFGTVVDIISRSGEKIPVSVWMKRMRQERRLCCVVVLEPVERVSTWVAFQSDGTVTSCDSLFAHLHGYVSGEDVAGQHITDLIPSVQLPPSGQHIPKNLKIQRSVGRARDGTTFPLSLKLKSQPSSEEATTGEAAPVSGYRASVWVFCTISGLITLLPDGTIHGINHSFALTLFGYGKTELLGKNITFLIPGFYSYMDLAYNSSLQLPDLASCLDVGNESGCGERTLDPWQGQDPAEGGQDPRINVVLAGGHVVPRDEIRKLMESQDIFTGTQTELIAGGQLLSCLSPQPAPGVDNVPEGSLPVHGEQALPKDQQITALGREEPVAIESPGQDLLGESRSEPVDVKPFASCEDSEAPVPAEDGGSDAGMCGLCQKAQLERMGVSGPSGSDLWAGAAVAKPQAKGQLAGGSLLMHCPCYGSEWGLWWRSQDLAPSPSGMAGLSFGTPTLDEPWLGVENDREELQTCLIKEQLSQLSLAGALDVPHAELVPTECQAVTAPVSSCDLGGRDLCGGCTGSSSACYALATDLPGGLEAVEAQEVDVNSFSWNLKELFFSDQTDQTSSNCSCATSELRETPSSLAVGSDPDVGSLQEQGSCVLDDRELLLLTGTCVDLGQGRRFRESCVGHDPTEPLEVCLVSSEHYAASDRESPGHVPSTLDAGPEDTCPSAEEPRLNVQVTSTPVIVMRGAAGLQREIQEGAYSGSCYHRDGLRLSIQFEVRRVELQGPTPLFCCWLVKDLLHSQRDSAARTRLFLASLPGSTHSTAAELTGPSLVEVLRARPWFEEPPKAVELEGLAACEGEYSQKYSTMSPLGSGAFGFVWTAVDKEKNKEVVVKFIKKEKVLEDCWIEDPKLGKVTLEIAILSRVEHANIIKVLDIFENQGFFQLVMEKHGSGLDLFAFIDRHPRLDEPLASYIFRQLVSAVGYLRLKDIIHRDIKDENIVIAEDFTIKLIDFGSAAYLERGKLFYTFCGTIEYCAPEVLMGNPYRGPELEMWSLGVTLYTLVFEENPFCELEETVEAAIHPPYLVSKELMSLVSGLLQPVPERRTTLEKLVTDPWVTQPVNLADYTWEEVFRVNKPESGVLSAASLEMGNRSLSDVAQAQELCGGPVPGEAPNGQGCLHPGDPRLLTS

Consider `CCn1c(=O)c(-c2cc[nH]n2)cc2c(C)nc(N)nc21` [VOXTALISIB], for which the Kd (in test [1]; in test [2]; in [3]; in test [4]; on Midasin; in test [5]) was > 30 µM (inactive) throughout. Further, the Kd (in test [6]; in test [7]; on Aurora kinase A) was > 30 µM (inactive) in each case.

With `CNC(=O)CN1CCC(Oc2cc3c(Nc4cccc(Cl)c4F)ncnc3cc2OC)CC1` [SAPITINIB], the Kd in test [8] is > 30 µM (inactive); in test [1] it was > 30 µM (inactive); in [9], > 30 µM (inactive); in [10] it was > 30 µM (inactive); in test [2], > 30 µM (inactive); in [3], 0.39 µM (active). For the same molecule, the Kd (in test [4]; on Midasin; in test [5]; in test [6]; in [11]; in test [12]) was > 30 µM (inactive) throughout. In addition, the Kd (in test [13]; on Aurora kinase A) was > 30 µM (inactive) in each case.

For `CCn1c(-c2nonc2N)nc2c(C#CC(C)(C)O)ncc(OC[C@H]3CCCNC3)c21` [GSK-690693], the Kd is > 30 µM (inactive) in [1], > 30 µM (inactive) on Midasin, > 30 µM (inactive) in test [7] and 1.07 µM in [13].

With `CC(=O)Nc1cccc(-n2c(=O)n(C3CC3)c(=O)c3c(Nc4ccc(I)cc4F)n(C)c(=O)c(C)c32)c1` [TRAMETINIB], the Kd in [14], in test [8], in test [1], in [9], in [10] and in test [2] was > 30 µM (inactive) each time. In addition, the Kd (in test [3]; in test [4]; on Midasin; in test [5]; in test [6]; in test [11]) was > 30 µM (inactive) in each case. The Kd (in test [7]; in test [12]; in test [13]; on Aurora kinase A) was > 30 µM (inactive) each time.

In the case of `COc1cc(CCc2cc(NC(=O)c3ccc(N4C[C@@H](C)N[C@@H](C)C4)cc3)n[nH]2)cc(OC)c1` [AZD-4547], the Kd in test [14] was > 30 µM (inactive); in test [8], > 30 µM (inactive); in test [1], > 30 µM (inactive); in [9] it was > 30 µM (inactive); in test [2] it was > 30 µM (inactive); in test [3], 0.029 µM (active). The Kd (in [4]; on Midasin; in test [5]; in test [6]; in test [11]; in test [7]) was > 30 µM (inactive) in each case. Moreover, the Kd in test [12] and in test [13] was > 30 µM (inactive) each time.

Take `C=CC(=O)N1CCC(Oc2cc3c(Nc4ccc(Cl)c(Cl)c4F)ncnc3cc2OC)CC1` [POZIOTINIB]: the Kd in test [8] was > 30 µM (inactive); in test [1], > 30 µM (inactive); in test [10], > 30 µM (inactive); in test [2], > 30 µM (inactive); in test [3] it was 1.19 µM (active); in [4], > 30 µM (inactive). In addition, the Kd (at Midasin; in test [5]; in test [11]; in test [12]; at Aurora kinase A) was > 30 µM (inactive) in each case.

As for `Nc1nc(N)c2nc(-c3cccc(O)c3)c(-c3cccc(O)c3)nc2n1` [TG100-115], the Kd (in test [1]; in [10]; on Midasin) was > 30 µM (inactive) in each case.

Regarding `CN1CCN(c2ccc3nc(-c4c(N)c5c(F)cccc5[nH]c4=O)[nH]c3c2)CC1` [DOVITINIB], the Kd (in test [1]; in test [9]; in [10]; at Midasin; in test [13]) was > 30 µM (inactive) each time.

As for `Cc1cc([C@@H](C)Nc2ccccc2C(=O)O)c2nc(N3CCOCC3)cc(=O)n2c1` [AZD-6482], the Kd in [14], in [8], in [1], in test [9], in test [10] and in test [2] was > 30 µM (inactive) in each case. Besides, the Kd (in [3]; in test [4]; on Midasin; in test [5]; in test [6]; in test [7]) was > 30 µM (inactive) throughout. Moreover, the Kd (in test [12]; in test [13]; at Aurora kinase A) was > 30 µM (inactive) in each case.

In the case of `Cc1cn(-c2cc(NC(=O)c3ccc(C)c(Nc4nccc(-c5cccnc5)n4)c3)cc(C(F)(F)F)c2)cn1` [NILOTINIB], the Kd (in test [1]; in [10]; on Midasin; in test [13]) was > 30 µM (inactive) in each case.
